For data set [1], the system named is Splenocyte. Nature of the data set: Enhancement of ConA-stimulated blastogenic responsiveness in BALB/c mouse splenocytes at 100 mg/kg. The data set is classed as functional, organism-based. On the set-up: dose 100 mg/kg.
In data set [2] the test system is Splenocyte. Nature of the data set: Enhancement of ConA-stimulated blastogenic responsiveness in BALB/c mouse splenocytes at 10 mg/kg. The data set is classed as functional, organism-based. On the set-up: dose 10 mg/kg.
The test system of data set [3] is Mus musculus. Nature of the data set: Immunostimulatory effect against SRBC-inducing plaque forming cells in BALB/c mouse assessed as antibody secreting B cells at 100 mg/kg, po relative to control. The format is functional, organism-based. Details: dose 100 mg/kg.
Data set [4] deals with Mus musculus. The data set can be described thus: Enhancement of ConA-Stimulated lymphocyte proliferation in BALB/c mouse at 10 mg/kg by MTT assay. The format is functional, organism-based. On the set-up: dose 10 mg/kg. (Tetrazolium dyes change colour on reduction, which living cells bring about.)
The subject of data set [5] is Mus musculus. The data set can be described thus: Increased phagocytic index in BALB/c mouse at 10 mg/kg. The format is organism-based. The conditions noted are these: in vivo. Details: dose 10 mg/kg.
Data set [6] concerns Mus musculus. Nature of the data set: Enhancement of LPS-Stimulated of lymphocyte proliferation in BALB/c mouse at 100 mg/kg by MTT assay. The format is functional, organism-based. On the set-up: dose 100 mg/kg.
Data set [7] has as its system Mus musculus. Nature of the data set: Enhancement of ConA-Stimulated lymphocyte proliferation in BALB/c mouse at 100 mg/kg by MTT assay. Details: dose 100 mg/kg. The data set is classed as functional, organism-based.
The test system of data set [8] is Mus musculus. The data set can be described thus: Immunostimulatory effect against SRBC-inducing plaque forming cells in BALB/c mouse assessed as antibody secreting B cells at 10 mg/kg, po relative to control. The format is functional, organism-based. On the set-up: dose 10 mg/kg.
Data set [9] concerns Splenocyte. Nature of the data set: Enhancement of LPS-stimulated blastogenic responsiveness in BALB/c mouse splenocytes at 100 mg/kg. The data set is classed as functional, organism-based. Details: dose 100 mg/kg.
Data set [10] has as its system Mus musculus. The data set can be described thus: Enhancement of LPS-Stimulated lymphocyte proliferation in BALB/c mouse at 10 mg/kg by MTT assay. The format is functional, organism-based. On the set-up: dose 10 mg/kg.
For data set [11], the system named is Mus musculus. Nature of the data set: Immunostimulatory effect against SRBC-induced hormonal response in BALB/c mouse assessed as antibody production at 10 m/kg. The format is functional, organism-based.
The test system of data set [12] is Splenocyte. Nature of the data set: Enhancement of LPS-stimulated blastogenic responsiveness in BALB/c mouse splenocytes at 10 mg/kg. Details: dose 10 mg/kg. The data set is classed as functional, organism-based.
For data set [13], the system named is Mus musculus. The data set can be described thus: Immunostimulatory effect against SRBC-inducing hormoral response in BALB/c mouse assessed as antibody production at 100 mg/kg. The format is functional, organism-based. On the set-up: dose 100 mg/kg.

The source made the active and inactive calls. The calls are words filed in the database; no cut-off is given here.

The record followed here is ChEMBL document CHEMBL1144606, “Immunomodulatory effects of two sapogenins 1 and 2 isolated from Luffa cylindrica in Balb/C mice” (Bioorg Med Chem Lett, 2007).

Take `CC1(C)CC[C@]2(C(=O)O)[C@H](O)C[C@]3(C)C(=CC[C@@H]4[C@@]5(C)CC[C@H](O)C(C)(C)[C@@H]5CC[C@]43C)[C@@H]2C1`: the outcome in data set [1], in data set [2], in data set [3], in data set [4], in data set [6] and in [7] was Active. The result in data set [8] and in data set [9] was Active. Further, the outcome in data set [5] was Active.
As for `CC1(C)CC[C@]2(C(=O)O)CC[C@]3(C)C(=CC[C@@H]4[C@@]5(C)CC[C@H](O)C(C)(C)[C@@H]5CC[C@]43C)[C@@H]2C1` [OLEANOLIC_ACID], the result in data set [10], in data set [1], in data set [2], in data set [11], in [12] and in data set [3] was Active. In addition, the outcome in [4], in [7] and in [8] was Active. In [13], the outcome was inactive. Moreover, the outcome in data set [5] was Active.
